Data: US20060069132A1, “Azolecarboxamide herbicides” (priority 2004, published 2006)

Key:
morningglory [1] = experiment: Test B pre-/postemergence herbicide test; format: in vivo, Ipomoea coccinea; details: for Morningglory plant response rating: postemergence, visual rating, scale 0 (no effect) to 100 (complete control)
In short: (§1)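 Visual rating, 0 (no effect) to 100 (complete control), versus untreated controls after 13–15 d in greenhouse. Pre- and postemergence applications (postemergence plants 2–18 cm, 1–4 leaves); flooded paddy arm at 2-leaf stage. Compounds in non-phytotoxic solvent plus surfactant.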

redroot pigweed = experiment: Test A pre-/postemergence herbicide test; format: in vivo, Amaranthus retroflexus
In short: (§2)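 Visual injury rating on a 0–100 scale (0 no effect, 100 complete control) versus untreated controls, about ten days after treatment in greenhouse. Pre: directed soil spray onto seeded sandy loam. Post: spray to runoff on plants 2–10 cm tall at one- to two-leaf stage.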

rice [2] = experiment: Test B pre-/postemergence herbicide test; format: in vivo, Oryza sativa; details: preemergence
In short: (§3)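 Test chemicals in a non-phytotoxic solvent mixture with surfactant were applied preemergence to seeded species and postemergence to plants 2-18 cm tall (1- to 4-leaf stage); rice and barnyardgrass were also tested in a flooded paddy at the 2-leaf stage. Visual rating versus controls after 13-15 days in greenhouse, scale 0 (no effect) to 100 (complete control).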

morningglory [3] = experiment: Test A pre-/postemergence herbicide test; format: in vivo, Ipomoea spp.
In short: as §2

wild oat = experiment: Test B postemergence herbicide test; format: in vivo, Avena fatua; details: postemergence, visual rating, scale 0 (no effect) to 100 (complete control)
In short: (§4)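 After treating 2-leaf paddy plants or 2–18 cm postemergence plants (1 to 4 leaves) with formulated chemical, researchers kept them in a greenhouse for 13–15 days. Effects were judged visually versus controls: 0 indicates none, 100 total control.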

pigweed = experiment: Test B pre-/postemergence herbicide test; format: in vivo, Amaranthus retroflexus; details: for Pigweed plant response rating: postemergence, visual rating, scale 0 (no effect) to 100 (complete control)
In short: as §3

cocklebur = experiment: Test B pre-/postemergence herbicide test; format: in vivo, Xanthium strumarium; details: for Cocklebur plant response rating: postemergence, visual rating, scale 0 (no effect) to 100 (complete control)
In short: as §1

ducksalad = experiment: Test B flooded paddy test; format: in vivo, Heteranthera limosa; details: 1000 g ai/ha, visual rating, scale 0 to 100 (0 no effect, 100 complete control), 13 to 15 days
In short: (§5)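 Visual ratings, 0 (no effect) to 100 (complete control), made versus controls after 13–15 d greenhouse. Paddy plants treated at 2-leaf stage; postemergence plants at 1- to 4-leaf stage, 2–18 cm tall.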

large crabgrass [4] = experiment: Test A pre-/postemergence herbicide test; format: in vivo, Digitaria sanguinalis
In short: as §2

barnyardgrass [5] = experiment: Test A pre-/postemergence herbicide test; format: in vivo, Echinochloa crus-galli
In short: as §2

velvetleaf [6] = experiment: Test B pre-/postemergence herbicide test; format: in vivo, Abutilon theophrasti; details: for Velvetleaf plant response rating: postemergence, visual rating, scale 0 (no effect) to 100 (complete control)
In short: as §3

lambsquarters = experiment: Test B pre-/postemergence herbicide test; format: in vivo, Chenopodium album; details: for Lambsquarters plant response rating: postemergence, visual rating, scale 0 (no effect) to 100 (complete control)
In short: as §3

blackgrass = experiment: Test B postemergence herbicide test; format: in vivo, Alopecurus myosuroides; details: postemergence, visual rating, scale 0 (no effect) to 100 (complete control)
In short: as §5

wheat = experiment: Test B postemergence herbicide test; format: in vivo, Triticum aestivum; parameters: key to Wheat plant response rating: 0 = no effect, 100 = complete control; details: postemergence, visual rating, scale 0 (no effect) to 100 (complete control)
In short: as §4

rice [7] = experiment: Test B flooded paddy test; format: in vivo, Oryza sativa; details: 1000 g ai/ha, visual rating, scale 0 to 100 (0 no effect, 100 complete control), 13 to 15 days
In short: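 Paddy species grown to the 2-leaf stage under flooding; blackgrass sprayed postemergence at 2–18 cm (1- to 4-leaf stage). Plants kept in a greenhouse for 13 to 15 days, then visually rated against controls on 0 (no effect) to 100 (complete control).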

velvetleaf [8] = experiment: Test A pre-/postemergence herbicide test; format: in vivo, Abutilon theophrasti
In short: as §2

large crabgrass [9] = experiment: Test B pre-/postemergence herbicide test; format: in vivo, Digitaria sanguinalis; details: for Crabgrass, Large plant response rating: postemergence, visual rating, scale 0 (no effect) to 100 (complete control)
In short: as §3

barnyardgrass [10] = experiment: Test B pre-/postemergence herbicide test; format: in vivo, Echinochloa crus-galli; details: for Barnyardgrass plant response rating: postemergence, visual rating, scale 0 (no effect) to 100 (complete control)
In short: as §1

giant foxtail [11] = experiment: Test A pre-/postemergence herbicide test; format: in vivo, Setaria faberi
In short: as §2

[12] = test system: small flower umbrella sedge; experiment: Test B flooded paddy test; format: in vivo, Cyperus difformis; details: 1000 g ai/ha, visual rating, scale 0 to 100 (0 no effect, 100 complete control), 13 to 15 days
In short: as §5

giant foxtail [13] = experiment: Test B pre-/postemergence herbicide test; format: in vivo, Setaria faberi; details: for Foxtail, Giant plant response rating: postemergence, visual rating, scale 0 (no effect) to 100 (complete control)
In short: as §3

corn = experiment: Test B pre-/postemergence herbicide test; format: in vivo, Zea mays; details: for Corn plant response rating: postemergence, visual rating, scale 0 (no effect) to 100 (complete control)
In short: as §3

barnyardgrass [14] = experiment: Test B flooded paddy test; format: in vivo, Echinochloa crus-galli; details: 1000 g ai/ha, visual rating, scale 0 to 100 (0 no effect, 100 complete control), 13 to 15 days
In short: as §5

Surinam grass = experiment: Test B pre-/postemergence herbicide test; format: in vivo, Urochloa decumbens; details: for Surinam Grass plant response rating: postemergence, visual rating, scale 0 (no effect) to 100 (complete control)
In short: as §3

[15] = 125 g ai/ha, 0 = no effect, 100 = complete control, preemergence
[16] = 500 g ai/ha, visual rating 0-100, 0 no effect, 100 complete control, preemergence
[17] = Postemergence, 500 g ai/ha, 0 to 100 scale, 0 no effect, 100 complete control
[18] = Postemergence, 2000 g ai/ha, 0 to 100 scale, 0 no effect, 100 complete control
[19] = Preemergence, 2000 g ai/ha, visual rating, 0 to 100 scale (0 no effect, 100 complete control)
[20] = preemergence, 500 g ai/ha, visual injury, 0 to 100 scale (0 no effect, 100 complete control)

C#CCNC(=O)c1cccc(NC(=O)c2sc(C(C)(C)C)nc2C)c1 [Compound 203]
Morningglory plant response rating (0 to 100 scale) (morningglory [1]; [15]): 0 | Plant response rating, Morningglory (morningglory [1]; [16]): 10 | Morningglory plant response rating (morningglory [1]; 125 g ai/ha): 0 | Morningglory plant response rating (morningglory [1]; 500 g ai/ha): 30 | Pigweed plant response rating (redroot pigweed; [17]): 35 | Plant response rating, Pigweed (redroot pigweed; [18]): 80 | Pigweed plant response rating (redroot pigweed; [19]): 90 | Pigweed plant response rating (redroot pigweed; [20]): 90 | Rice plant response rating (0 to 100 scale) (rice [2]; 125 g ai/ha, 0 = no effect, 100 = complete control): 0 | Plant response rating, Rice (rice [2]; 500 g ai/ha, visual rating 0-100, 0 no effect, 100 complete control): 0 | Morningglory plant response rating (morningglory [3]; [17]): 50 | Plant response rating, Morningglory (morningglory [3]; [18]): 55 | Morningglory plant response rating (morningglory [3]; [19]): 15 | Morningglory plant response rating (morningglory [3]; [20]): 10 | Oat, Wild plant response rating (wild oat; 125 g ai/ha): 0 | Oat, Wild plant response rating (wild oat; 500 g ai/ha): 10 | Pigweed plant response rating (0 to 100 scale) (pigweed; [15]): 10 | Plant response rating, Pigweed (pigweed; [16]): 90 | Pigweed plant response rating (pigweed; 125 g ai/ha): 0 | Pigweed plant response rating (pigweed; 500 g ai/ha): 10 | Cocklebur plant response rating (0 to 100 scale) (cocklebur; [15]): 0 | Plant response rating, Cocklebur (cocklebur; [16]): 10 | Cocklebur plant response rating (cocklebur; 125 g ai/ha): 0 | Cocklebur plant response rating (cocklebur; 500 g ai/ha): 10 | Ducksalad plant response rating (ducksalad): 0 | Crabgrass, Large plant response rating (large crabgrass [4]; [17]): 10 | Plant response rating, Crabgrass, Large (large crabgrass [4]; [18]): 15 | Crabgrass, Large plant response rating (large crabgrass [4]; [19]): 75 | Crabgrass, Large plant response rating (large crabgrass [4]; [20]): 50 | Barnyardgrass plant response rating (barnyardgrass [5]; [17]): 10 | Plant response rating, Barnyardgrass (barnyardgrass [5]; [18]): 30 | Barnyardgrass plant response rating (barnyardgrass [5]; [19]): 60 | Barnyardgrass plant response rating (barnyardgrass [5]; [20]): 10 | Velvetleaf plant response rating (0 to 100 scale) (velvetleaf [6]; [15]): 0 | Plant response rating, Velvetleaf (velvetleaf [6]; [16]): 20 | Velvetleaf plant response rating (velvetleaf [6]; 125 g ai/ha): 0 | Velvetleaf plant response rating (velvetleaf [6]; 500 g ai/ha): 10 | Lambsquarters plant response rating (0 to 100 scale) (lambsquarters; [15]): 10 | Plant response rating, Lambsquarters (lambsquarters; [16]): 30 | Lambsquarters plant response rating (lambsquarters; 125 g ai/ha): 10 | Lambsquarters plant response rating (lambsquarters; 500 g ai/ha): 50 | Blackgrass plant response rating (blackgrass; 125 g ai/ha): 0 | Blackgrass plant response rating (blackgrass; 500 g ai/ha): 0 | Wheat plant response rating (wheat; 125 g ai/ha): 0 | Wheat plant response rating (wheat; 500 g ai/ha): 0 | Rice plant response rating (rice [7]): 0 | Velvetleaf plant response rating (velvetleaf [8]; [17]): 10 | Plant response rating, Velvetleaf (velvetleaf [8]; [18]): 10 | Velvetleaf plant response rating (velvetleaf [8]; [19]): 35 | Velvetleaf plant response rating (velvetleaf [8]; [20]): 15 | Crabgrass, Large plant response rating (0 to 100 scale) (large crabgrass [9]; [15]): 30 | Plant response rating, Crabgrass, Large (large crabgrass [9]; [16]): 80 | Crabgrass, Large plant response rating (large crabgrass [9]; 125 g ai/ha): 0 | Crabgrass, Large plant response rating (large crabgrass [9]; 500 g ai/ha): 10 | Barnyardgrass plant response rating (0 to 100 scale) (barnyardgrass [10]; [15]): 0 | Plant response rating, Barnyardgrass (barnyardgrass [10]; [16]): 10 | Barnyardgrass plant response rating (barnyardgrass [10]; 125 g ai/ha): 0 | Barnyardgrass plant response rating (barnyardgrass [10]; 500 g ai/ha): 0 | Foxtail, Giant plant response rating (giant foxtail [11]; [17]): 10 | Plant response rating, Foxtail, Giant (giant foxtail [11]; [18]): 20 | Foxtail, Giant plant response rating (giant foxtail [11]; [19]): 75 | Foxtail, Giant plant response rating (giant foxtail [11]; [20]): 30 | Sedge, Umbrella plant response rating [12]: 0 | Foxtail, Giant plant response rating (0 to 100 scale) (giant foxtail [13]; [15]): 0 | Plant response rating, Foxtail, Giant (giant foxtail [13]; [16]): 10 | Foxtail, Giant plant response rating (giant foxtail [13]; 125 g ai/ha): 0 | Foxtail, Giant plant response rating (giant foxtail [13]; 500 g ai/ha): 10 | Corn plant response rating (0 to 100 scale) (corn; [15]): 0 | Plant response rating, Corn (corn; [16]): 0 | Corn plant response rating (corn; 125 g ai/ha): 0 | Corn plant response rating (corn; 500 g ai/ha): 10 | Barnyardgrass plant response rating (barnyardgrass [14]): 0 | Surinam Grass plant response rating (0 to 100 scale) (Surinam grass; [15]): 0 | Plant response rating, Surinam Grass (Surinam grass; [16]): 0 | Surinam Grass plant response rating (Surinam grass; 125 g ai/ha): 10 | Surinam Grass plant response rating (Surinam grass; 500 g ai/ha): 20
